Tested on: C57BL/KsJ-db/db mice
Experiment: Blood sugar and triglycerides lowering activity in db/db mice (in vivo)
Conditions: male C57BL/KsJ-db/db mice, 10 mg/kg/day, oral gavage daily for 6 days; for Maximum reduction in blood glucose level (%): plasma glucose, glucose oxidase method; for Triglyceride lowering (%): plasma triglycerides
From the text: Mutation in colonies of laboratory animals and different sensitivities to dietary regimens have made the development of animal models with non-insulin dependent diabetes associated with obesity and insulin resistance possible. Genetic models such as db/db and ob/ob (See Diabetes, (1982) 31(1) : 1- 6) in mice and fa/fa and zucker rats have been developed by the various laboratories for understanding the pathophysiology of disease and testing the efficacy of new antidiabetic compounds (Diabetes, (1983) 32: 830-838; Annu. Rep. Sankyo Res. Lab. (1994) 46 : 1-57). The homozygous animals, C57 BL/KsJ-db/db mice developed by Jackson Laboratory, US, are obese, hyperglycemic, hyperinsulinemic and insulin resistant (J. Clin. Invest., (1990) 85 : 962-967), whereas heterozygous are lean and normoglycemic. In db/db model, mouse progressively develops insulinopenia with age, a feature commonly observed in late stages of human type II diabetes when blood sugar levels are insufficiently controlled. The state of pancreas and its course vary according to the models. Since this model resembles that of type II diabetes mellitus, the compounds of the present invention were tested for blood sugar and triglycerides lowering activities.
Male C57BL/KsJ-db/db mice of 8 to 14 weeks age, having body weight range of 35 to 60 grams, procured from the Jackson Laboraotory, USA, were used in the experiment The mice were provided with standard feed (National Institute of Nutrition, Hyderabad, India) and acidified water, ad libitum. The animals having more than 300 mg / dl blood sugar were used for testing. The number of animals in each group was 4.
The random blood sugar and triglyceride levels were measured by collecting blood (100 µl) through orbital sinus, using heparinised capillary in tubes containing EDTA which was centrifuged to obtain plasma. The plasma glucose and triglycerides levels were measured spectrometrically, by glucose oxidase and glycerol-3-PO4 oxidase/peroxidase enzyme (Dr. Reddy's Lab. Diagnostic Division Kits, Hyderabad, India) methods respectively. On 6th day the blood samples were collected one hour after administration of test compounds / vehicle for assessing the biological activity.
Test compounds were suspended on 0.25 % carboxymethyl cellulose and administered to test group at a dose of 10 mg to 100 mg / kg through oral gavage daily for 6 days. The control group received vehicle (dose 10 ml / kg).

SMILES | Maximum reduction in blood glucose level (%) | Triglyceride lowering (%)
Cc1nn(CCOc2ccc(CC3SC(=O)NC3=O)cc2)c(=O)c2ccccc12 (stereo not shown) [Example 6, 5-[4-[2-[4-Methyl-1-oxo-1,2-dihydro-phthalazin-2-yl]ethoxy]phenylmethyl] thiazolidin-2,4-dione] | 61% | 40%
O=C1NC(=O)C(=Cc2ccc(OCCN3OCc4ccccc4C3=O)cc2)S1 [Example 11, 5-[4-[2-[4-Oxo-3,4-dihydro-1H-2,3-benzoxazin-3-yl]ethoxy]phenylmethylene]thiazolidin-2,4-dione] | 37% | 60%

— patent EP0971917B1, “THIAZOLIDINEDIONE AND OXAZOLIDINEDIONE DERIVATIVES HAVING ANTIDIABETIC, HYPOLIPIDAEMIC AND ANTIHYPERTENSIVE PROPERTIES” (DR. REDDY'S RESEARCH FOUNDATION, priority 1997, dated 1998)
